{"source": "patent US20240391978A1", "about": "“APOLIPOPROTEIN FUSION PROTEINS FOR CELL-SPECIFIC IMMUNE REGULATION” (BIO-TRIP B.V., priority 2021, published 2024)", "key": {"primary human monocytes": {"test_system": "primary human monocytes", "experiment": "In vitro inflammation inhibition, LPS-stimulated monocytes", "type": "cell-based", "procedure": "For pharmacological inhibition experiments, the monocytes were pre-incubated for 1 hour with one of the inhibitors described in Table 2 before addition of the training stimulus.\nIn vitro inflammation inhibition: Monocytes were adhered to a flat-bottom cell culture plate for 1 hour and washed with warm PBS to remove any non-adherent cells and cell debris. […] Following the initial 24-hour stimulation, the supernatants were collected and stored at −20° C. until further analysis with ELISA for IL6 and TNF.\nCytokine and lactate measurements: TNF, IL6, and IL1Ra were measured in cell culture supernatants using duoset ELISA kits (R&D systems), according to the manufacturer's instructions. For lactate measurements, a fluorometric assay was used. 30 μl sample, medium control, or known standard was added to a black 96-well plate. Then, 30 μl reaction mix (PBS pH 7.4, horse radish peroxidase (0.2 U/ml), lactate oxidase (2 U/ml), Amplex red (100 μM; Fisher scientific)) was added and the reaction was incubated for 20 minutes in the dark at RT. Immediately thereafter, fluorescence was measured at 530/25 nm and 590/35 nm. Gen5 software (v3.03, BioTek) was used in conjunction with Microsoft Excel to calculate cytokine and lactate concentrations in the original samples."}, "TNF": {"test_system": "TNF", "experiment": "ChIP-qPCR of H3K9me3 at TNF", "type": "cell-based, human", "conditions": "IL4-induced trained immunity", "procedure": "Chromatin immunoprecipitation: Macrophages were harvested as described above and resuspended in RPMI+++. The cells were fixed for 10 minutes in 1% methanol-free formaldehyde. The reaction was then quenched for 3 minutes by adding 125 mM glycine. The fixed cells were washed three times with ice-cold PBS and lysed at approximately 15*10^6 cells/ml in lysis buffer (20 mM HEPES pH 7.6, 1% SDS, 1× protease inhibitor cocktail (PIC; Roche)), sonicated (Bioruptor Pico, Diagenode), and centrifuged (10 minutes, 13000 rpm, RT).\nAliquots of chromatin were de-crosslinked in 0.5×TBE buffer (supplemented with 0.5 mg/ml proteinase K (Qiagen)) for 1 hour at 65° C. and run on a 1% agarose gel to confirm target fragment size of 200-800 bp.\nThe remaining chromatin was divided into ChIP and input samples. ChIP samples were diluted 10× in dilution buffer (16.7 mM Tris pH 8.0, 1.0% Triton, 1.2 mM EDTA, 167 mM NaCl, 1×PIC in MilliQ) and 1 μg of ChIP-grade antibody (Diagenode) was added. The samples were rotated overnight at 4° C.\nMagnetic protein A/G beads (Dynabeads) were washed 2 times in dilution buffer supplemented with 0.15% SDS and 0.1% BSA. The washed beads were added to the ChIP samples and rotated at 4° C. for 1 hour. […]"}, "Macrophages": {"test_system": "Macrophages", "experiment": "Macrophage surface marker flow cytometry", "type": "cell-based, human", "conditions": "data not shown", "from_the_text": "Primary monocyte-derived dendritic cell (moDC) generation: For experiments were moDCs were compared to macrophages (untrained control or IL4-trained), moDCs were differentiated as follows. First, negatively selected monocytes were obtained as described above. […] The cells were differentiated until day 6, with one medium refresh on day 3. On day 6, the non-adherent cells were harvested in addition to the adherent cells (as described above). The moDCs and macrophages were then subjected to analysis by flow cytometry as described below.\nMacrophage surface marker flow cytometry: Macrophages were harvested as described above and transferred to a v-bottom 96 well plate for staining. The cells were centrifuged at 1500 rpm, 5 minutes, 4° C. The supernatant was removed, and the cells were washed once with 200 μl PBA (PBS pH 7.4, 1% w/v BSA (Sigma)).\nFc-receptors were blocked by incubation in PBS supplemented with 10% human pooled serum for 15 minutes at 4° C. After washing once more, surface markers and viability were stained for in a volume of 50 μl for 30 minutes at 4° C., using the antibodies and viability dye described in table 3.\nFollowing two washes, the cells were resuspended in 150 μl PEA and measured on a Cytoflex flow cytometer (Eeckman Coulter) or ED FACSVerse system (ED Eiosciences). Compensation was performed using VersaComp compensation beads (Eeckman Coulter) for single antibody stains; a mixture of live and heat-killed cells was used for single stains of the viability dye (as per the manufacturer's recommendations). Data analysis was performed in Flowjo (v10.7.1, ED Eiosciences) Our gating strategy was as follows: first, a time gate was used if necessary. Then, single cell events were selected using subsequent FSC-A/SSC-A and FSC-A/FSC-H gates. Dead cells were removed from the analysis by selecting the viability dye-negative population. Geometric mean fluorescence intensities were calculated as a measure of surface marker expression."}, "[1]": {"conditions": "Percoll-enriched monocytes, LPS 24 hours, IL4 25 ng/mL"}}}
{"substance": "IL4: recombinant human interleukin 4", "values": [{"measurement": "secretion of IL6", "setting": "primary human monocytes; [1]", "value": "potently inhibited"}, {"measurement": "secretion of IL-1Ra", "setting": "primary human monocytes; [1]", "value": "secreted significantly more IL-1Ra compared to controls"}, {"measurement": "secretion of TNF", "setting": "primary human monocytes; [1]", "value": "potently inhibited"}, {"measurement": "baseline lactate production", "setting": "primary human monocytes; otherwise unstimulated monocytes vs medium control, data not shown", "value": "slightly, but significantly, lower baseline lactate production"}, {"measurement": "H3K9me3 at TNF (AUC analysis of primer pairs)", "setting": "TNF", "value": "a decrease of H3K9me3"}, {"measurement": "CD1c expression", "setting": "Macrophages; IL4-trained cells vs untrained cells and moDCs", "value": "slightly more CD1c than untrained cells, but far less than moDCs"}, {"measurement": "CD14 expression", "setting": "Macrophages; IL4 training, day 6", "value": "strong downregulation"}, {"measurement": "CD80 expression", "setting": "Macrophages; IL4 training, day 6", "value": "marginally increased"}, {"measurement": "CD200R expression", "setting": "Macrophages; IL4 training, day 6", "value": "significantly enhanced"}, {"measurement": "CD206 expression", "setting": "Macrophages; IL4 training, day 6", "value": "significantly enhanced"}]}
